According to paper PMC4045134, “Discovery of Triterpenoids as Reversible Inhibitors of α/β-hydrolase Domain Containing 12 (ABHD12)” (PLoS ONE, 2014):
Entries after “also recorded” stand apart in the source; their conditions may differ.

Assays:
Type in all cases: biochemical
hABHD12 = target: T1, hABHD12 (Homo sapiens, UniProt Q8N2K0); experiment: Fluorescent glycerol assay of 1-AG hydrolysis in hABHD12-HEK293 lysates; conditions: hABHD12-HEK293 lysates
T1 construct: expressed in transfected cells; host or cells: HEK293 (transient)
T1 sequence (Q8N2K0 1-398): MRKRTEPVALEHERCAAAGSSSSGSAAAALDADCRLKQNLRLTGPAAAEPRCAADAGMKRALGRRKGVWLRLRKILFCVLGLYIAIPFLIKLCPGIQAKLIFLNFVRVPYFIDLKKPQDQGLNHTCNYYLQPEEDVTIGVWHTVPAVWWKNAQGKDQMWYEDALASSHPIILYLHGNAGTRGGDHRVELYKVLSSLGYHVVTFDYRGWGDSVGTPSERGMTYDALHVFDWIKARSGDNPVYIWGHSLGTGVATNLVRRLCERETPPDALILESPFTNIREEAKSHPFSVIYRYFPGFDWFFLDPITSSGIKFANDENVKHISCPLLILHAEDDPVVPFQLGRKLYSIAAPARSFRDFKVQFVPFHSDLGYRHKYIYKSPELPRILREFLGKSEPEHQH

hABHD6 = target: T2, hABHD6 (Homo sapiens, UniProt Q9BV23); experiment: Fluorescent glycerol assay in hABHD6-HEK293 lysates; conditions: 10 µM; NI = no inhibition at 10 µM; read-out: hABHD6 Remaining activity % control ± s.e.m (n=3)
T2 construct: expressed in transfected cells; host or cells: HEK293 (transient)
T2 sequence (Q9BV23 1-337): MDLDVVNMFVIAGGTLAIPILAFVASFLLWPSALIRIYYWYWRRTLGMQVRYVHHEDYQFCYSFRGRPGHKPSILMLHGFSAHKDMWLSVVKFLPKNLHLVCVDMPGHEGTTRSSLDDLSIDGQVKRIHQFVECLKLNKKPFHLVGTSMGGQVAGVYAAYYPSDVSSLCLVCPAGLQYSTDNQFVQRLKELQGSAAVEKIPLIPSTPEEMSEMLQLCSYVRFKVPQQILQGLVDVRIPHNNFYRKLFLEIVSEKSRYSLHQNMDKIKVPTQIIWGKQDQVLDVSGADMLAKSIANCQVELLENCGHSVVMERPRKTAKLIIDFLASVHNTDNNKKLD
Description: (§1) Glycerol liberated from 1-AG hydrolysis was determined with a sensitive fluorescent assay using lysates of HEK293 cells with transient overexpression of hABHD12, hABHD6 or hMAGL, essentially as previously described. […] Fluorescence (λex 530; λem 590 nm) was monitored using a Tecan Infinite M200 plate reader (Tecan Group Ltd., Männedorf, Switzerland). Inhibitory activities of selected compounds towards FAAH were determined using membranes of hFAAH overexpressing COS-7 cells, essentially as previously described. The final incubation volume (100 µL) contained 1 µg of protein and the substrate concentration was 20 µM (10 nM of ^3H-anandamide having specific activity of 60 Ci/mmol and concentration of 1 mCi/mL).

hMAGL = target: T3, hMAGL (Homo sapiens, UniProt Q99685); experiment: Fluorescent glycerol assay in hMAGL-HEK293 lysates; conditions: 10 µM; read-out: hMAGL Remaining activity % control ± s.e.m (n=3)
T3 construct: expressed in transfected cells; host or cells: HEK293 (transient)
T3 sequence (Q99685 1-303): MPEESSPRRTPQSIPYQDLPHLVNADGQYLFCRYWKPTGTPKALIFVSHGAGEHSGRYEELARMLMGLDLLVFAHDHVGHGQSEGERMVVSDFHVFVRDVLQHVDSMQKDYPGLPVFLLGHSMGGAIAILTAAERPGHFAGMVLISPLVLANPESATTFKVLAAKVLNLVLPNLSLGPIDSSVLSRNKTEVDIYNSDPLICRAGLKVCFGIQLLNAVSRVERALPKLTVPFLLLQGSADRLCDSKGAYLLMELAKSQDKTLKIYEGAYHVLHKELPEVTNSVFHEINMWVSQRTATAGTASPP
Description: as §1

CB1R = target: T4, CB1R (Rattus norvegicus, UniProt P20272); experiment: [35S]GTPγS binding, CB1R agonist activity, rat cerebellar membranes; conditions: 10 µM
T4 construct: membranes prepared from brain tissue of 4-week-old male rodents were used; from tissue; host or cells: rat cerebellar membranes
T4 sequence (P20272 whole entry): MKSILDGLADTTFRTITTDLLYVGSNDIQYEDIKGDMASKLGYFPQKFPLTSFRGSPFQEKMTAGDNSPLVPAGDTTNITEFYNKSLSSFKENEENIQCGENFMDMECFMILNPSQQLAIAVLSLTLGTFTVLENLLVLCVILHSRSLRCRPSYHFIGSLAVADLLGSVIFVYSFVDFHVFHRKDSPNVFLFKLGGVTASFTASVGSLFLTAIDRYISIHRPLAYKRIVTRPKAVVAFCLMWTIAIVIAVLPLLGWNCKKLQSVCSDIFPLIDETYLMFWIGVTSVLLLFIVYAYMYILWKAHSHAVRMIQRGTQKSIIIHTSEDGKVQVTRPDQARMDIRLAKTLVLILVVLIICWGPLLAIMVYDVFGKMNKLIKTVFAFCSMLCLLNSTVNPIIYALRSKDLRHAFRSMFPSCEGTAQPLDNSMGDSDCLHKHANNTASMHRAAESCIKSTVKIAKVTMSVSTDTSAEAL
Description: The CB1 and CB2 receptor activity of the selected compounds (10 µM) were measured using the GTPγS binding assay according to the previously described methods, [33].
(§2) For ABPP experiments (Figure 6C) and cannabinoid receptor activity assays (Table S2), membranes prepared from brain tissue of 4-week-old male rodents were used. The animals were obtained from the National Laboratory Animal Centre, University of Eastern Finland. Approval for the harvesting of animal tissue was obtained from the local welfare officer of the University of Eastern Finland.

ABHD12 = target: T5, ABHD12 (Mus musculus, UniProt Q99LR1); experiment: Competitive ABPP with TAMRA-FP in mouse brain membrane proteome; conditions: mouse brain membranes, 1 h inhibitor, 1 h probe
T5 construct: the sole serine hydrolase targeted by the triterpenoids in native brain membrane proteome; from tissue; host or cells: mouse whole-brain membranes
T5 sequence (Q99LR1 1-398): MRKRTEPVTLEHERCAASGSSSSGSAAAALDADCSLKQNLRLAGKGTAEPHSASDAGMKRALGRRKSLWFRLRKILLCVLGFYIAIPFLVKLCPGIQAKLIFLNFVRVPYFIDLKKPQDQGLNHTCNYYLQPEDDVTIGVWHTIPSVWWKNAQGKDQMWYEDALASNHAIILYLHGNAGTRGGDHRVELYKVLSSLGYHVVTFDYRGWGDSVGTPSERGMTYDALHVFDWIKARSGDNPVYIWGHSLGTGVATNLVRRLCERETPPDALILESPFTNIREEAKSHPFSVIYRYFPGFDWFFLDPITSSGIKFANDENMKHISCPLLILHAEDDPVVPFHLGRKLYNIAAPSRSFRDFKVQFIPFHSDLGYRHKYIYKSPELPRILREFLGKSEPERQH
Description: Competitive ABPP using HEK293 cell lysates and mouse brain membranes was conducted to visualize effects of selected triterpenoids on the binding of the active site serine-targeting fluorescent fluorophosphonate probe TAMRA-FP following outlines of previous protocols, [31]. Briefly, lysates (25 µg) of HEK293 cells with or without (Mock) hABHD12 overexpression or mouse wholebrain membranes (100 µg) were treated for 1 h with DMSO or the inhibitor, after which TAMRA-FP labelling was conducted for 5 min (lysates) or 1 hour (membranes) at RT (final probe concentration 2 µM). The reaction was quenched by addition of gel loading buffer (followed by boiling for 5 min in the case of lysates), after which 10 µg protein (10 µl) was loaded per lane and the proteins were resolved in 10% SDS-PAGE together with standards. TAMRA-FP labeling was visualized (λex 552; λem 575 nm) by a fluorescent reader (FLA-3000 laser fluorescence scanner, Fujifilm, Tokyo, Japan). The intensity of bands was quantified using ImageJ, a freely available image analysis software (http://rsbweb.nih.gov/ij/).
as §2

Structure (SMILES): CC1(C)CC[C@]2(C(=O)O)CC[C@]3(C)C(=CC[C@@H]4[C@@]5(C)C[C@@H](O)[C@H](O)C(C)(C)[C@@H]5CC[C@]43C)[C@@H]2C1 [Compound 8, Maslinic acid, reference compound]
- IC50 (hABHD12; three independent experiments, read-out: -logIC50±s.e.m. (converted)): 1260 nM
- Emax (hABHD12; read-out: max inhibition (converted)): 89%
- remaining activity at 10 µM (hABHD6): > 100%
- remaining activity at 10 µM (hMAGL): 95.6 ± 0.8%
- CB1R agonist activity [35S]GTPγS binding % Basal (Mean (range), n=2) (CB1R): 93 (88-97) % Basal
- TAMRA-FP probe labeling of ABHD12 (ABHD12): selectively inhibited probe labeling of ABHD12; also recorded: dose-dependently inhibit TAMRA-FP labeling of ABHD12 already at 20 µM
